Data as given in US6355619B1, “Peptide tumor cell growth inhibitors” (Board of Regents, The University of Texas System, priority 1996, dated 2002).
Where two headings read alike, the source gives them in different places.

Assays:
[1] = system: IL-8-induced neutrophil chemotaxis; experiment: Neutrophil chemotaxis stimulated by IL-8 (leading front, Boyden chamber); assay type: cell-based, human
Protocol: FIG. 7. The Effect of Ac-RRWWCR-NH2 (SEQ ID NO:1) on Neutrophil Chemotaxis. Chemotaxis was performed in the presence of increasing concentration of Ac-RRWWCR-NH2 (SEQ ID NO:1) in both upper and lower chamber. Stimulants added to lower chamber were 10 nM IL-8 (●), 10 nM fMLP (▪), or media alone (◯) as control. Analysis of variance was used for multiple comparison.
Chemotaxis was performed using the leading front method as described by Zigmond and Hirsh (1973). IL-8 or controls were placed in the lower well of a Boyden chamber. A five micron pore size, 100 μm. thick cellulose nitrate filter (Sartorius Filter,. Inc., San Francisco, Calif.) was placed on the surface and the chamber was then assembled. A 200 μl aliquot of the neutrophil preparation (1×10^6 cells/ml) in RPMI-1640 media containing 1% BSA was added to the top of the filter and incubated at 37° C. for 30 min. The filter was then fixed, stained and mounted on a glass microscope slide. The leading front was determined by the position of the leading two cells. The distance that the leading two cells had moved through the filter was measured for six fields on each filter. The measurements were made with four filters for each set of conditions.

[2] = system: IL-8 receptors on neutrophils; experiment: Inhibition of 125I-labeled IL-8 binding to human neutrophils; settings: for Receptor 1 Bmax of IL-8, two-site model / Receptor 2 Bmax of IL-8, two-site model: binding isotherms, Lundon I
Protocol: Therefore, in pursuing this aim, the present inventors assayed various other peptide compositions for IL-8 inhibitory activity by screening a library of 400 groups of hexapeptides. In these screening assays, ^125I-labeled interleukin-8 (10^−12 M) was mixed with 100 μM peptide, then added to neutrophils and incubated at 4° C. for 90 min. The bound radioactivity was separated from unbound by centrifugation through a dense cushion of a mixture of paraffin and silicon oils and the ^125I bound to neutrophils was counted in a gamma radiation spectrometer, allowing the results to be expressed as the percent of IL-8 binding which was inhibited.
The use of human subjects for acquisition of neutrophils was approved by the Institutional Review Board for human experimentation. For the preparation of neutrophils, human blood was anticoagulated with heparin for enzyme release studies and with 0.33% sodium citrate for other studies. For chemotactic and enzyme release studies neutrophils were separated by dextran sedimentation and erythrocyte lysis by the method of Boyum (Kohler and Milstein, 1975). For binding studies and cytotoxic studies, the neutrophils were further purified in gradients of Percoll (Pharmacia Fine Chemicals, Piscataway, N.J.) to a purity of 90-93% (Kohler and Milstein, 1975).
Recombinant human IL-8 (72 amino acids; Pepro Tech Inc., Rocky Hill, N.J.) was radioactively labeled with ^125I by the chloramine T method of Hunter and Greenwood (Hunter and Greenwood, 1962). Binding studies were performed according to Besemer et al. (1989), as follows: Neutrophils in phosphate buffered saline pH 7.4 (PBS) containing 0.1% bovine serum albumin (BSA) were incubated with labeled ligand in the presence or absence of the peptide being tested for 90 min at 4° C. to reach equilibrium and then centrifuged at 12,000×g for 3 min in Beckman B microfuge (Beckman Instruments, Fullerton, Calif.), through a cushion consisting of a mixture of paraffin oil Fisher Scientific, Fair Lawn, N.J.) and silicon oil (Serva Co., N.Y., N.Y.). The pellet and supernatant were then counted in a gamma radiation spectrometer. The non-specific binding was estimated to measure the binding in the presence of 100-fold excess of non-labeled ligand. The binding constants were calculated using the computer programs Lundon I and Lundon II.
In these studies, a screening for inhibition was carried out at 100 μM concentration of the peptide being tested, with a 10^−12 M concentration of IL-8. In the first series of studies, twenty peptides were synthesized with the carboxyl-terminal residue of RRWWCX (SEQ ID NO:23) being changed to each of the standard protein amino acids in turn.

[3] = system: neutrophils; experiment: β-glucuronidase release from neutrophils without stimulant; assay type: cell-based, human; settings: without any stimulant
Protocol: FIG. 8. The Effect of Ac-RRWWCR-NH2 (SEQ ID NO:1) on β-glucuronidase Release. Neutrophils pretreated with cytochalasin B were incubated with 100 nM IL-8 (●), 100 nM fMLP (▪), 100 nM C5a (_) or 100 nM leukotriene B4 ? or without any stimulant (◯) in the presence of increasing concentration of Ac-RRWWCR-NH2 (SEQ ID NO:1) for 30 min at 37° C. β-glucuronidase activity of supernatants were measured using phenolphthalein-glucuronic acid as substrate. Analysis of variance was used for multiple comparison.
Neutrophil enzyme release was studied by a modification of the method of Goldstein and colleagues (Goldstein et al., 1973). Cytochalasin B (Sigma Chemical Co.) was stored in dimethyl sulfoxide at a concentration of 5 mg/ml and was diluted to a concentration of 50 μg/ml in Hank's Balanced Salt Solution (HBSS) immediately before use. Cytochalasin B, 200 μl, was added to 1 ml of suspension of neutrophils, 6.25×10^6 cells/ml in HBSS, to achieve a final cytochalasin B concentration of […]. The solution was then incubated in 96 well plates at room temperature for 10 min. The stimulant, 100 μl, was added, and this cell suspension was incubated for 30 min at 37° C. The plates were centrifuged and 100 μl of supernatant was removed. […] After 16 hr incubation at 37° C., 200 μl of 0.2 M Glycine in 0.2 M NaCl, pH10.4 was added to each well and OD540 was measured as the enzyme activity.

[4] = +10 μM Ac-RRWWCR, binding inhibition curves, Lundon II

RRWWCR [Ac-RRWWCR-NH2]
peptide concentration significantly suppressing chemotaxis ([1]; chemotaxis induced by 10 nM IL-8): 50 lM
peptide concentration significantly inhibiting chemotaxis ([1]; neutrophils stimulated with 10 nM IL-8): 50 µM
concentration at which IL-8 binding was suppressed significantly ([2]; 1 nM 125I-labeled IL-8 (FIG. 5)): 100 nM
EC50 ([2]; 1 nM 125I-labeled IL-8, 90 min at 4° C., multiple replicates, read-out: average EC50 of the binding inhibition curve): 13.7 ± 0.6 µM
EC50 ([2]; 1 nM IL-8, FIG. 10, peptide premixed with ligand 15 min, read-out: EC50, inhibition of binding of IL-8 to neutrophils): ~25 µM
inhibition of IL-8 binding to neutrophils ([2]; 10 μM peptide (FIG. 9)): 20%
Receptor 1 Bmax of IL-8, two-site model ([2]; 10 μM peptide): 91.9 ± 9.2 fmole/10^6 cells
Receptor 2 Bmax of IL-8, two-site model ([2]; 10 μM peptide): 90.9 ± 9.7 fmole/10^6 cells
IL-8 binding inhibition at lower peptide concentration (FIG. 1) ([2]; 20 μM peptide): most potent inhibitor
Receptor 1 Bmax of IL-8, two-site model ([2]; 20 μM peptide): 90.9 ± 27.3 fmole/10^6 cells
Receptor 2 Bmax of IL-8, two-site model ([2]; 20 μM peptide): 76.2 ± 11.8 fmole/10^6 cells
Receptor 1 Bmax of IL-8, two-site model ([2]; 40 μM peptide): 82.0 ± 25.4 fmole/10^6 cells
Receptor 2 Bmax of IL-8, two-site model ([2]; 40 μM peptide): 44.2 ± 30.0 fmole/10^6 cells
% INHIB. (IL-8 binding to neutrophils) ([2]; 100 μM peptide, 10^−12 M IL-8, hexamer RRWWCX series, first screen): 112.2%
Receptor 1 Bmax of IL-8 [2, 4]: 11.2 ± 0.8 fmole/10^6 cells
Receptor 2 Bmax of IL-8 [2, 4]: 75.6 ± 0.7 fmole/10^6 cells
% INHIB. (IL-8 binding to neutrophils) ([2]; first set of heptamer studies, D-amino acid RRWWCRX series, methodology of Example I): 112.2%
effectiveness relative to the non-acetylated peptide ([2]; inhibiting IL-8 binding to neutrophils): almost twice as effective
IC50 ([2]; read-out: IC50, binding of radiolabeled IL-8): 13.7 µM
Ki ([2]; specific binding of 125I-labeled IL-8, read-out: apparent K1 (estimated, purely competitive single site model)): ~10 µM
% Binding Inhibition (IL-8 binding to neutrophils) ([2]; synthetic peptides, standard assay (Table 6)): 98.6 ± 0.9%
stimulation of β-glucuronidase release by the peptide itself [3]: did not stimulate β-glucuronidase release
